From patent US20250099420A1, “SMALL MOLECULE MODULATORS OF GPR139 COMPLEX” (University of Florida Research Foundation, Incorporated, priority 2022, published 2025)
Where two headings read alike, the source gives them in different places.

Columns and labels:
GPR139 = biological target: T1, GPR139 (Homo sapiens, UniProt Q6DWJ6); experiment: GPR139 Agonist titration / agonist counterscreen assay (calcium detection, HEK-GPR139 cells); assay type: cell-based; design: expressed in transfected cells; host or cells: HEK Aequorin cells, Maxcyte transient transfection; conditions: GPR139 Agonist Activity; for Averaged Max % Response (±St. Dev.): activity relative to known control; for EC50: read-out: EC50
T1 sequence (Q6DWJ6 1-353): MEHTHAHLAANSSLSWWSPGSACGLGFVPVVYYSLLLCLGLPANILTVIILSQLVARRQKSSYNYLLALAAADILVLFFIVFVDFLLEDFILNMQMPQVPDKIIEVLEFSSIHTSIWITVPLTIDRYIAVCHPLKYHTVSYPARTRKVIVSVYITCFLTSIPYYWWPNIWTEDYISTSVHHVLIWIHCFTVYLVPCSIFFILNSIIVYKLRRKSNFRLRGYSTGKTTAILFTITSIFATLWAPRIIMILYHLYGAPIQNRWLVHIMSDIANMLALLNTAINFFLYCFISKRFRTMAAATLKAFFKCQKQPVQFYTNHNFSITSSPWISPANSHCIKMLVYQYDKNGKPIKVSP
Procedure: GPR activity was assessed using a calcium detection assay. […] Negative control samples were treated with DMSO. […] Intracellular calcium was measured using Calcium 5.

parental HEK cells = experiment: HEK parental Agonist Counterscreen Assay (non-transfected cells); assay type: cell-based; conditions: for Averaged Max % Response (±St. Dev.): activity relative to known control
From the text: The high control for the agonist counterscreen was Forskolin not acetylcholine.

[1] = Homo sapiens, HEK293, HEK Agonist Activity, parental non-transfected HEK cells
[2] = values printed in E-notation without unit
[3] = Homo sapiens, HEK293, HEK Agonist Activity section of Table 4 (parental HEK counterscreen)
[4] = HEK Agonist Activity section of Table 4 (parental HEK counterscreen)

## C=C(CCc1cccc(CC)c1)C(C)C1CCC(Cc2ccccc2C)C1=C (stereo not drawn) [SR-01000095280]
GPR139
  Averaged Max % Response (±St. Dev.): 122.65 ± 11.25%
GPR139; based on logD
  Lipophilic Efficiency (logD): 6.68
GPR139; based on logP
  Lipophilic Efficiency (logP): 6.68
GPR139; ligand efficiency
  Efficiency Ligand: 0.41
Parental HEK cells; HEK Agonist Activity
  Lipophilic Efficiency (logD): 2.38
  Lipophilic Efficiency (logP): 2.38
  Averaged Max % Response (±St. Dev.): 25.01 ± 8.12%
Parental HEK cells; [1]
  EC50: > 14100 nM

## CC1CCCC(NC(=O)CN2CCCN(Cc3ccc(F)cc3Cl)C2=O)C1C (stereo not drawn) [SR-01000146420]
GPR139
  Averaged Max % Response (±St. Dev.): 113.46 ± 20.46%
GPR139; based on logD
  Lipophilic Efficiency (logD): 4.29
GPR139; based on logP
  Lipophilic Efficiency (logP): 4.29
GPR139; fitted dose-response curve
  Hill Slope: 1.05
GPR139; ligand efficiency
  Efficiency Ligand: 0.38
GPR139; [2]
  EC50: 29.6 nM
Parental HEK cells; HEK Agonist Activity
  Lipophilic Efficiency (logD): 1.61
  Lipophilic Efficiency (logP): 1.61
  Averaged Max % Response (±St. Dev.): 20.27 ± 3.59%
Parental HEK cells; [1]
  EC50: > 14100 nM

## Cc1cc(=O)n2nc(NCc3ccccc3Cl)nc2[nH]1 [SR-01000153886]
GPR139
  Efficiency Ligand: 0.41
  Hill Slope: 2.51
  Lipophilic Efficiency (logD): 3.22
  Lipophilic Efficiency (logP): 3.22
  Averaged Max % Response (±St. Dev.): 90.96 ± 29.33%
GPR139; HEK-GPR139 cells
  EC50: 1200 nM
Parental HEK cells; HEK Agonist Activity section
  Lipophilic Efficiency (logD): 2.16
  Lipophilic Efficiency (logP): 2.16
  Averaged Max % Response (±St. Dev.): −3.87 ± 9.73%
Parental HEK cells; [3]
  EC50: > 14100 nM

## Cc1ccc(C)c(C(=O)CCC(=O)NNC(=O)CSc2nc3ccccc3o2)c1 [SR-01000073202]
GPR139
  Averaged Max % Response (±St. Dev.): 119.67 ± 15.04%
GPR139; based on logD
  Lipophilic Efficiency (logD): 4.38
GPR139; based on logP
  Lipophilic Efficiency (logP): 4.38
GPR139; ligand efficiency
  Efficiency Ligand: 0.39
GPR139; [2]
  EC50: > 6.6 nM
Parental HEK cells; HEK Agonist Activity
  Lipophilic Efficiency (logD): 1.04
  Lipophilic Efficiency (logP): 1.04
  Averaged Max % Response (±St. Dev.): 12.21 ± 5.38%
Parental HEK cells; [1]
  EC50: > 14500 nM

## Cc1ccc(Br)cc1S(=O)(=O)NCCC(=O)NCCc1sccc1C [SR-01000101329]
GPR139
  Averaged Max % Response (±St. Dev.): 102.96 ± 12.58%
GPR139; based on logD
  Lipophilic Efficiency (logD): 5.16
GPR139; based on logP
  Lipophilic Efficiency (logP): 5.15
GPR139; fitted dose-response curve
  Hill Slope: 0.79
GPR139; ligand efficiency
  Efficiency Ligand: 0.38
Parental HEK cells; HEK Agonist Activity section
  Lipophilic Efficiency (logD): 3.17
  Lipophilic Efficiency (logP): 3.16
  Averaged Max % Response (±St. Dev.): −2.50 ± 6.06%
Parental HEK cells; [3]
  EC50: > 14100 nM

## CN(C)CCOc1cc(NC(=O)C2COc3ccccc3C2)ccc1-c1cn[nH]c1.O=C(O)C(F)(F)F.O=C(O)C(F)(F)F (stereo not drawn) [SR-00000004123]
GPR139
  Efficiency Ligand: 0.28
  Hill Slope: 0.37
  Lipophilic Efficiency (logD): 4.48
  Lipophilic Efficiency (logP): 3.15
  Averaged Max % Response (±St. Dev.): 79.85 ± 11.38%
GPR139; HEK-GPR139 cells
  EC50: 847 nM
Parental HEK cells; HEK Agonist Activity section
  Lipophilic Efficiency (logD): 3.26
  Lipophilic Efficiency (logP): 1.93
  Averaged Max % Response (±St. Dev.): 3.68 ± 4.29%
Parental HEK cells; [4]
  EC50: > 14100 nM

## CCCCCc1cc(C2=CCC=C2)ccc1CC(=O)C1CCc2ccccc2C1 (stereo not drawn) [SR-00000004451]
GPR139
  Averaged Max % Response (±St. Dev.): 92.93 ± 0.53%
GPR139; based on logD
  Lipophilic Efficiency (logD): 6.38
GPR139; based on logP
  Lipophilic Efficiency (logP): 4.33
GPR139; fitted dose-response curve
  Hill Slope: 0.70
GPR139; ligand efficiency
  Efficiency Ligand: 0.33
Parental HEK cells; HEK Agonist Activity section
  Lipophilic Efficiency (logD): 4.36
  Lipophilic Efficiency (logP): 2.31
  Averaged Max % Response (±St. Dev.): 3.04 ± 3.40%
Parental HEK cells; [3]
  EC50: > 14100 nM

## CSc1cccc(NC(=O)C2C3C=CC4(O3)C2C(=O)N(C(C)c2ccccc2)C4C(=O)NC2CCCCC2)c1 (stereo not drawn) [SR-01000546462]
GPR139
  Averaged Max % Response (±St. Dev.): 107.13 ± 9.94%
GPR139; based on logD
  Lipophilic Efficiency (logD): 2.98
GPR139; based on logP
  Lipophilic Efficiency (logP): 2.98
GPR139; fitted dose-response curve
  Hill Slope: 0.51
GPR139; ligand efficiency
  Efficiency Ligand: 0.26
GPR139; [2]
  EC50: 56.5 nM
Parental HEK cells; HEK Agonist Activity section
  Lipophilic Efficiency (logD): 0.56
  Lipophilic Efficiency (logP): 0.56
  Averaged Max % Response (±St. Dev.): 0.58 ± 3.78%
Parental HEK cells; [4]
  EC50: > 15100 nM

## COc1ccc(CCNC(=O)CC(=O)NCCc2ccc(OC)cc2)cc1 [SR-01000034566]
GPR139
  Averaged Max % Response (±St. Dev.): 100.73 ± 15.83%
GPR139; based on logD
  Lipophilic Efficiency (logD): 4.65
GPR139; based on logP
  Lipophilic Efficiency (logP): 4.65
GPR139; fitted dose-response curve
  Hill Slope: 0.96
GPR139; ligand efficiency
  Efficiency Ligand: 0.36
GPR139; [2]
  EC50: 137 nM
Parental HEK cells; HEK Agonist Activity section
  Lipophilic Efficiency (logD): 2.60
  Lipophilic Efficiency (logP): 2.60
  Averaged Max % Response (±St. Dev.): −4.69 ± 7.66%
Parental HEK cells; [4]
  EC50: > 15200 nM

## CC(C)(C)n1c2c(c(=O)[nH]c1=O)C(NC(=O)CCC1CCCCC1)(C(F)(F)F)C(=O)N2 (stereo not drawn) [SR-01000091502]
GPR139
  Averaged Max % Response (±St. Dev.): 88.58 ± 8.42%
GPR139; based on logD
  Lipophilic Efficiency (logD): 4.63
GPR139; based on logP
  Lipophilic Efficiency (logP): 4.59
GPR139; fitted dose-response curve
  Hill Slope: 0.85
GPR139; ligand efficiency
  Efficiency Ligand: 0.31
GPR139; [2]
  EC50: 141 nM
Parental HEK cells; HEK Agonist Activity section
  Lipophilic Efficiency (logD): 2.63
  Lipophilic Efficiency (logP): 2.59
  Averaged Max % Response (±St. Dev.): −12.00 ± 4.68%
Parental HEK cells; [4]
  EC50: > 14100 nM

## CC1(c2ccc3c(c2)OCO3)NC(=O)N(CC(=O)Nc2ccccc2[N+](=O)[O-])C1=O (stereo not drawn) [SR-01000074154]
GPR139
  Averaged Max % Response (±St. Dev.): 109.38 ± 5.55%
GPR139; based on logD
  Lipophilic Efficiency (logD): 5.22
GPR139; based on logP
  Lipophilic Efficiency (logP): 5.22
GPR139; fitted dose-response curve
  Hill Slope: 0.54
GPR139; ligand efficiency
  Efficiency Ligand: 0.32
GPR139; [2]
  EC50: 147 nM
Parental HEK cells; HEK Agonist Activity section
  Lipophilic Efficiency (logD): 3.21
  Lipophilic Efficiency (logP): 3.20
  Averaged Max % Response (±St. Dev.): 11.86 ± 8.71%
Parental HEK cells; [4]
  EC50: > 15000 nM

## CN(C(=O)CN1C(=O)NC(C)(c2ccc3ccccc3c2)C1=O)C1CCCCC1 (stereo not drawn) [SR-01000048373]
GPR139
  Averaged Max % Response (±St. Dev.): 118.34 ± 15.06%
GPR139; based on logD
  Lipophilic Efficiency (logD): 3.96
GPR139; based on logP
  Lipophilic Efficiency (logP): 3.96
GPR139; fitted dose-response curve
  Hill Slope: 0.66
GPR139; ligand efficiency
  Efficiency Ligand: 0.34
GPR139; [2]
  EC50: 96.7 nM
Parental HEK cells; HEK Agonist Activity section
  Lipophilic Efficiency (logD): 1.79
  Lipophilic Efficiency (logP): 1.79
  Averaged Max % Response (±St. Dev.): 9.79 ± 7.30%
Parental HEK cells; [4]
  EC50: > 14300 nM

## Cc1ccc(CC2CCC(CC(=O)CC3CCCCCCC3)C2=O)cc1 (stereo not drawn) [SR-01000151470]
GPR139
  Efficiency Ligand: 0.31
  Hill Slope: 1.14
  Lipophilic Efficiency (logD): 2.62
  Lipophilic Efficiency (logP): 2.62
  Averaged Max % Response (±St. Dev.): 78.27 ± 16.46%
Parental HEK cells; HEK Agonist Activity section
  Lipophilic Efficiency (logD): 1.44
  Lipophilic Efficiency (logP): 1.44
  Averaged Max % Response (±St. Dev.): −9.17 ± 11.99%
Parental HEK cells; [3]
  EC50: > 14100 nM

## N#C/C(=C/c1ccc(CNS(=O)(=O)c2ccccc2)o1)C(=O)NCCc1ccccc1 [SR-01000318079]
GPR139
  Averaged Max % Response (±St. Dev.): 102.46 ± 8.64%
GPR139; based on logD
  Lipophilic Efficiency (logD): 3.78
GPR139; based on logP
  Lipophilic Efficiency (logP): 3.77
GPR139; fitted dose-response curve
  Hill Slope: 0.56
GPR139; ligand efficiency
  Efficiency Ligand: 0.30
GPR139; [2]
  EC50: 210 nM
Parental HEK cells; HEK Agonist Activity section
  Lipophilic Efficiency (logD): 1.96
  Lipophilic Efficiency (logP): 1.94
  Averaged Max % Response (±St. Dev.): 11.69 ± 6.13%
Parental HEK cells; [4]
  EC50: > 14100 nM

## CN(C)C(CNC(=O)Nc1ccc(Cl)c(Cl)c1)c1cccnc1 (stereo not drawn) [SR-01000127953]
GPR139
  Averaged Max % Response (±St. Dev.): 96.92 ± 13.57%
GPR139; based on logD
  Lipophilic Efficiency (logD): 4.13
GPR139; based on logP
  Lipophilic Efficiency (logP): 3.73
GPR139; fitted dose-response curve
  Hill Slope: 0.56
GPR139; ligand efficiency
  Efficiency Ligand: 0.40
GPR139; [2]
  EC50: 236 nM
Parental HEK cells; HEK Agonist Activity section
  Lipophilic Efficiency (logD): 2.35
  Lipophilic Efficiency (logP): 1.96
  Averaged Max % Response (±St. Dev.): 10.89 ± 5.56%
Parental HEK cells; [3]
  EC50: > 14100 nM
